Laboratory results as given in patent US9902725B2, “Heterocyclic derivatives as RORgamma modulators” (GENFIT, priority 2014, dated 2018).

Tests used:
[1] = biological target: T1, RORγt ligand-binding domain (RORγt-LBD) (Homo sapiens, UniProt P51449); experiment: Time-resolved FRET (TR-FRET) RORγt coactivator assay; assay type: biochemical; conditions: GST-RORγ-LBD, biotinylated RIP140 peptide, coactivator displacement
T1 construct: 20 nM recombinantly expressed RORγ-LBD fused to GST
T1 sequence (P51449 269-508 limits assumed): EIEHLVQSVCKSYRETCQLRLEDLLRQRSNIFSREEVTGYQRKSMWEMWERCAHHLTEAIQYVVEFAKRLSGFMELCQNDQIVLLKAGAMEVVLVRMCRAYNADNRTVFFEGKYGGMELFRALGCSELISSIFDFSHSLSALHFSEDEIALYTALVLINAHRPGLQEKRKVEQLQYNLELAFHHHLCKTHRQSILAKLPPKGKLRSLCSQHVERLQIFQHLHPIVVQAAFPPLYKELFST

human RORγt [2] = biological target: T2, human RORγt (Homo sapiens, UniProt P51449); experiment: RORE luciferase/RORγt transactivation assay; assay type: cell-based; design: expressed in transfected cells; conditions: COS-7 cells transfected with IL-17 promoter luciferase reporter and RORγt plasmid, 20 h
T2 sequence (P51449 1-497 isoform P51449-2): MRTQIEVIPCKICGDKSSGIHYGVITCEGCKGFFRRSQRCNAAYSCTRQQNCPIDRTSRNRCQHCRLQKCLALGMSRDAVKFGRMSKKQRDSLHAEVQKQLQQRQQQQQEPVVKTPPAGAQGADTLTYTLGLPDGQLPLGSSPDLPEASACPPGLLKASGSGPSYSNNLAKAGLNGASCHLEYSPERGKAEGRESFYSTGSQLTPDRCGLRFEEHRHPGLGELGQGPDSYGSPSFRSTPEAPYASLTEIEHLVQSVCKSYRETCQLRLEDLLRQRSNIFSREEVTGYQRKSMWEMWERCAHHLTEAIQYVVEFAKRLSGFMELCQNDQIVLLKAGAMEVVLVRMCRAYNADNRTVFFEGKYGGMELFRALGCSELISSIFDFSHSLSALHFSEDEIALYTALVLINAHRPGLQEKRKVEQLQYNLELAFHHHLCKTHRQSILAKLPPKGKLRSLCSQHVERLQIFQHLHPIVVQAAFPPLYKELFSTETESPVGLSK
Source text: It is well known that RORγ binds to a conserved non-coding sequence (CNS) enhancer element in the IL-17 promoter. Accordingly, we have used in this assay a luciferase reporter gene construct that contains the human IL-17 promoter fragment with RORγ-specific CNS enhancer element and a RORγt overexpressing plasmid, to indirectly assess the effect of compounds on RORγ activity. Inhibition of RORγ activity by test compounds will result in a decrease in luciferase activity in COS-7 cells transfected with the reporter construct.
Monkey Kidney COS-7 cell line are maintained in a standard culture medium Dulbecco's modified Eagle's minimal (DMEM) medium supplemented with 10% fetal calf serum, 1% sodium pyruvate, 1% essential amino acids and 1% antibiotics at 37° C. in a humidified atmosphere of 5% CO2 and 95% air. Culture medium was changed every 2 days.
The 4.3 Kb human IL-17 promoter containing the RORγ-specific CNS enhancer element was PCR amplified from human genomic DNA and cloned into a pGL3-TKLuc2Cp reporter plasmid. To overexpress RORγt, the full-length cDNA of human RORγt (identical to published sequence NM 001001523) was cloned without any restriction into pcdna3.1DV5-His-topo to generate the RORγt overexpression plasmid “RORγt_FL_h_pcDNA3.1DV5-His-TOPO_1”.
The luciferase reporter plasmid and the RORγt overexpression plasmid were transfected into COS-7 cell line using 4 μLJetPEITM/μg of DNA. Briefly, 150 ng of DNA (ration ½ between RORE-Tk Luc2Cp and cDNA RORγt or the empty vector for the negative control) was served to transfect adherent COS-7 cells in a […] culture flask, in complete medium (see cos-7 cell line culture). Cells were incubated for 24 hours in a humidified atmosphere of 5% CO2 and 95% air
Cells were then detached (using trypsin) and washed by centrifugation at 300 g for 10 minutes. Cell pellet was resuspended in serum free/phenol red free DMEM and seeded in 384 well plates at a density of 10000 cells/well and then incubated for 4 h at 37° C.
Compounds were dissolved in 100% DMSO to obtain 10 mM stock solutions. For each compound, test concentrations were diluted in serum free/phenol red free DMEM using the Genesis Freedom 200™ (TECAN) and added to the cells to obtain a 0.3% DMSO final concentration (in a final volume of 40 μL per well). T091317 was used as reference compound. Cells were incubated in presence of compounds for an additional 20 h at 37° C. in a humidified atmosphere of 5% CO2 and 95% air
The luciferase activity was then measured with 40 μL/well steady-Glo Luciferase assay system (Promega, Madison, Wis.) and after incubation at room temperature for 30 minutes. The luminescence was estimated using the Ultra384 reader (TECAN). Data were collected and analyzed using GraphPad Prism software (GraphPad Software V5.02, San Diego Calif. USA). IC50 in μM and Emax in % were reported for each compound.

human RORγt [3] = biological target: T2, human RORγt; experiment: IL-17 secretion from EL4 murine lymphoma overexpressing human RORγt; assay type: cell-based; design: expressed in transfected cells; host or cells: EL-4 murine lymphoma; conditions: IL-17 secretion inhibition, PMA and ionomycin stimulation, 24 h
In short: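 EL4 murine lymphoma cells electroporated with hRORγt plasmid, seeded 150000 cells/well, pretreated with compound, then stimulated with PMA (10 ng/mL) and ionomycin (1 μM final) with compound for a further 24 h at 37° C. IL-17 in supernatant measured by HTRF or ELISA.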

IC50 [1] [nM] | IC50 (human RORγt [2]) [µM] | IC50 (human RORγt [3]) [µM] | Structure (SMILES)
< 1000 | 1 to 10 |  | Cc1ccc(C(NC(=O)Cc2ccc3[nH]cc(CCC(=O)O)c3c2)c2ccccc2)c(Cl)c1 (centres unmarked) [Cpd. 7, 3-[5-({[(2-chloro-4-methylphenyl)(phenyl)methyl]carbamoyl}methyl)-1H-indol-3-yl]propanoic acid]
< 1000 | 1 to 10 | 10 to 30 | Cc1ccc(C(NC(=O)Cc2ccc3[nH]cc(CCC(=O)O)c3c2)c2ccccc2)c(N2CCCC2)n1 (centres unmarked) [Cpd. 15, 3-{5-[({[6-methyl-2-(pyrrolidin-1-yl)pyridin-3-yl](phenyl)methyl}carbamoyl)methyl]-1H-indol-3-yl}propanoic acid]
1000 to 10000 | > 10 |  | Cc1ccc(F)c(C(NC(=O)Cc2ccc3[nH]cc(CCC(=O)O)c3c2)c2ccccc2)c1 (centres unmarked) [Cpd. 19, 3-[5-({[(2-fluoro-5-methylphenyl)(phenyl)methyl]carbamoyl}methyl)-1H-indol-3-yl]propanoic acid]
1000 to 10000 | 1 to 10 |  | O=C(O)Cc1c[nH]c2ccc(CC(=O)NC(c3ccccc3)c3ccccc3N3CCCCC3)cc12 (centres unmarked) [Cpd. 39, 2-{5-[({phenyl[2-(piperidin-1-yl)phenyl]methyl}carbamoyl)methyl]-1H-indol-3-yl}acetic acid]
< 1000 | < 1 | 1 to 10 | O=C(O)CCc1c[nH]c2ccc(CC(=O)NC(c3ccccc3)c3ccccc3N3CCCCCC3)cc12 (centres unmarked) [compound 35, 3-{5-[({[2-(azepan-1-yl)phenyl](phenyl)methyl}carbamoyl)methyl]-1H-indol-3-yl}propanoic acid]
< 1000 | 1 to 10 | 10 to 30 | Cc1ccc(C(NC(=O)Cc2ccc3[nH]cc(CCC(=O)O)c3c2)c2ccccc2)c2ccccc12 (centres unmarked) [compound 37, 3-[5-({[(4-methylnaphthalen-1-yl)(phenyl)methyl]carbamoyl}methyl)-1H-indol-3-yl]propanoic acid]
< 1000 | < 1 |  | Cc1ccc(C(NC(=O)Cc2ccc3[nH]cc(CCC(=O)O)c3c2)c2ccc(C)o2)c(N2CCCCC2)c1 (centres unmarked) [compound 268, 3-{5-[({[4-methyl-2-(piperidin-1-yl)phenyl](5-methylfuran-2-yl)methyl}carbamoyl)methyl]-1H-indol-3-yl}propanoic acid]

Continued, compound first:

Structure (SMILES) | IC50 [1] [nM] | IC50 (human RORγt [2]) [µM] | IC50 (human RORγt [3]) [µM]
Cc1ccc(C(NC(=O)Cc2ccc3[nH]cc(CCC(=O)O)c3c2)c2ccccc2)c(Br)c1 (centres unmarked) [Cpd. 9, 3-[5-({[(2-bromo-4-methylphenyl)(phenyl)methyl]carbamoyl}methyl)-1H-indol-3-yl]propanoic acid] | < 1000 | 1 to 10 | 
Cc1ccc(C(NC(=O)Cc2ccc3[nH]cc(CCC(=O)O)c3c2)c2ccccc2)c(F)c1 (centres unmarked) [Cpd. 17, 3-[5-({[(2-fluoro-4-methylphenyl)(phenyl)methyl]carbamoyl}methyl)-1H-indol-3-yl]propanoic acid] | 1000 to 10000 | > 10 | 
Cc1ccc(C(NC(=O)Cc2ccc3[nH]cc(CCC(=O)O)c3c2)c2ccccn2)c(C)c1 (centres unmarked) [Cpd. 21, 3-[5-({[(2,4-dimethylphenyl)(pyridin-2-yl)methyl]carbamoyl}methyl)-1H-indol-3-yl]propanoic acid] | < 1000 | > 10 | 
Cc1ccc(C(NC(=O)Cc2ccc3[nH]cc(CCC(=O)O)c3c2)c2cccnc2)c(C)c1 (centres unmarked) [compound 27, 3-[5-({[(2,4-dimethylphenyl)(pyridin-3-yl)methyl]carbamoyl}methyl)-1H-indol-3-yl]propanoic acid] | 1000 to 10000 | > 10 | 
Cc1ccc(C(NC(=O)Cc2ccc3[nH]cc(CCC(=O)O)c3c2)c2ccccc2)c2ncccc12 (centres unmarked) [compound 31, 3-[5-({[(5-methylquinolin-8-yl)(phenyl)methyl]carbamoyl}methyl)-1H-indol-3-yl]propanoic acid] | < 1000 | > 10 | 
Cc1cc(Cl)ccc1C(NC(=O)Cc1ccc2[nH]cc(CCC(=O)O)c2c1)c1ccccc1 (centres unmarked) [compound 33, 3-[5-({[(4-chloro-2-methylphenyl)(phenyl)methyl]carbamoyl}methyl)-1H-indol-3-yl]propanoic acid] | < 1000 | 1 to 10 | 
